These results are taken from patent US5717094A, “Process and intermediates for preparing compounds having a disubstituted acetylene moiety and retinoic acid-like biological activity” (Allergan, priority 1991, dated 1998).

For test [1], the system named is ornithine decarboxylase (ODC), TPA induced. Put plainly: Inhibition of TPA-induced ornithine decarboxylase (ODC) activity, essentially the method of Verma & Boutwell. The format is biochemical. To be noted: concentration attaining 80% inhibition of TPA induced ODC activity. The text has this: The retionic acid like activity of these compounds was confirmed through the classic measure of retionic acid activity involving the effects of retionic acid on ornithine decarboxylase. The original work on the correlation between retionic acid and decrease in cell proliferation was done by Verma & Boutwell, Cancer Research, 1977, 37, 2196-2201. That reference discloses that ornithine decarboxylase (ODC) activity increased precedent to polyamine biosynthesis. It has been established elsewhere that increases in polyamine synthesis can be correlated or associated with cellular proliferation. Thus, if ODC activity could be inhibited, cell hyperproliferation could be modulated. Although all causes for ODC activity increase are unknown, it is known that 12-0-tetradecanoylphorbol-13-acetate (TPA) induces ODC activity.
By way of example of retionic acid-like activity it is noted that in the assay conducted essentially in accordance with the method of Verman & Boutwell, ibid, the following examples of compounds made in accordance with the process of the present invention (Compounds 10, 11 and 12) attained an 80% inhibition of TPA induced ODC activity at the following concentrations (IC80): […]

Test [2] has the same test system. To be noted: background statement on retinoic acid; Verma & Boutwell, Cancer Research, 1977, 37, 2196-2201; cited from earlier work.

Regarding `CCOC(=O)c1ccc(C#Cc2cc3c(cc2C)OC(C)(C)CC3(C)C)nc1` [Compound 12, Ethyl-6-[(2,2,4,4,7-pentamethyl-6-chromanyl)-ethynyl nicotinate], in test [1], the IC80 conc worked out at 0.2 mmols.

`CCOC(=O)c1ccc(C#Cc2ccc3c(c2)C(C)(C)CC(C)(C)S3)nc1` [Compound 10] displayed an IC80 conc in test [1] of 0.69 mmols.

For the compound `CC1=C(/C=C/C(C)=C/C=C/C(C)=C/C(=O)O)C(C)(C)CCC1` [Retionic acid, retionic acid], the “inhibition of induction of ODC activity by TPA” value in test [2] is “inhibits this induction of ODC activity by TPA”.

In turn, `CCOC(=O)c1ccc(C#Cc2ccc3c(c2)C(C)(C)CC(C)(C)O3)nc1` [Compound 11] yielded an IC80 conc in test [1] of 0.13 mmols.
